In this assay the target is T1, CXCR2 (Homo sapiens, UniProt P25025).
T1 construct: expressed in transfected cells; host or cells: Ba/F3 (Baf3) cells; membranes, clone designation [Hi70]
T1 sequence (P25025 1-360): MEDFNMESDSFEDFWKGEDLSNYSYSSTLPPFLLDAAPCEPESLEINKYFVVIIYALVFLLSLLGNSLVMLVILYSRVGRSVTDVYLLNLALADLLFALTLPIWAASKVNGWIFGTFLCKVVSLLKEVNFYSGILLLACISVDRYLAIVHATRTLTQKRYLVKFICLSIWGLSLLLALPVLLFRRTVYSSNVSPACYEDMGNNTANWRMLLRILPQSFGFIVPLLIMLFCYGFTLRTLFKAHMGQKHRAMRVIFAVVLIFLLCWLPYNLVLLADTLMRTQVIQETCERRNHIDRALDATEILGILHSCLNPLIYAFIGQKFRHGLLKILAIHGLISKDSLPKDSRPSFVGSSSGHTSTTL
Nature of the assay: [35S]GTPγS Binding Assay: inhibition of agonist (GROα) stimulated [35S]GTPγS exchange in membranes expressing CXCR2. It is filed as biochemical. As to conditions: 1 h; 3 nM compound; Baf3/hCXCR2 membranes; percent inhibition at highest chemokine (hGROα) concentration 500 nM; control (no compound) = 0%, standard = 100%; read-out: % Inhibition GTPyS. The method, then:
[^35S]GTPγS Binding Assay:
This assay measures the inhibition of agonist (GROα) stimulated guanosine 5′-[γ-^35S]triphospate ([^35S]GTPγS, triethylammonium salt) exchange in membranes expressing CXCR2.
For each assay point, 2 μg of membrane (Baf3/hCXCR22 [Hi70]), 200 μg wheat germ agglutinin-coated SPA beads (WGA-SPA; Amersham, Arlington Heights, Ill.), 3 μM guanosine 5′-diphosphate (GDP) ±3 nM compound are pre-incubated for 3 hrs at room temperature (mixing by inversion) in SPA binding buffer (50 mM TRIS-HCL, 1 mM CaCl2, 5 mM MgCl2, 50 mM NaCl, 0.002% NaN3, 0.1% BSA, 10 μg/ml saponin, pH=7.6).
The bead, membrane, compound mixture is transferred to a 96-well Isoplate (Wallac, Gaithersburg, Md.) and pre-incubated for 60 min with concentrations of chemokine (hGROα) ranging from 500 nM to 1 nM with a no chemokine sample serving as a control. The GTPγS exchange reaction was initiated by the addition of 0.1 nM [^35S]GTPγS and the incubation for 60 min at room temperature. Assay is terminated by the addition of 10 μl “Stop Solution” (0.5M Na-EDTA; 10 μM GDP).
Membrane-bound [^35S]GTPγS was measured using a 1450 Microbeta Trilux counter (Wallac, Gaithersburg, Md.). Data is calculated as percent inhibition at the highest chemokine concentration (500 nM). The control (No compound addition), which is set to 0%, versus the % inhibition of the standard, which is set at 100%. The standard used is: [drawing 19]
In general terms: GTPγS resists hydrolysis and so accumulates on activated G proteins.
One may read the inhibition as the change of the read-out against control, counted positive when it falls. As for `CC[C@@H](Nc1c(Nc2cccc(C(=O)N(C)C)c2O)c(=O)c1=O)c1cc(C2CCCC2)c(C)o1` [Compound 11, 3-[[2-[[1(R)-(4-CYCLOPENTYL-5- METHYL-2-FURANYL)PROPYL]AMINO]- 3,4-DIOXO-1-CYCLOBUTEN-1-YL]- AMINO]-2-HYDROXY-N,N-DIMETHYL- BENZAMIDE], the inhibition at 0.003 µM turned out to be 109%. With `CC[C@@H](Nc1c(Nc2cccc(C(=O)N3CCOCC3)c2O)c(=O)c1=O)c1cc(C2CC2)c(C)o1` [Compound 14, 4-[3-[[2-[[1(R)-(4-CYCLOPROPYL-5- METHYL-2-FURANYL)PROPYL]AMINO]- 3,4-DIOXO-1-CYCLOBUTEN-1-YL]- AMINO]-2-HYDROXYBENZOYL]- MORPHOLINE], the inhibition at 0.003 µM came to 103%. Turning to `CC[C@@H](Nc1c(Nc2cccc(C(=O)N(C)C)c2O)c(=O)c1=O)c1cc(Br)c(C)o1` [Compound 3, 3-[[2-[[1(R)-(4-BROMO-5-METHYL-2- FURANYL)PROPYL]AMINO]-3,4-DIOXO- 1-CYCLOBUTEN-1-YL]AMINO]-2- HYDROXY-N,N-DIMETHYLBENZAMIDE], the inhibition at 0.003 µM is 122%.

`CC[C@@H](Nc1c(Nc2cccc(C(=O)N(C)C)c2O)c(=O)c1=O)c1cc(C2CC2)c(C)o1` [Compound 12, 3-[[2-[[1(R)-(4-CYCLOPROPYL-5- METHYL-2-FURANYL)PROPYL]AMINO]- 3,4-DIOXO-1-CYCLOBUTEN-1-YL]- AMINO]-2-HYDROXY-N,N-DIMETHYL- BENZAMIDE]: the inhibition at 0.003 µM was 107%. Regarding `CC[C@@H](Nc1c(Nc2cccc(C(=O)N(C)C)c2O)c(=O)c1=O)c1cc(C(C)C)c(C)o1` [Compound 8, 2-HYDROXY-N,N-DIMETHYL-3-[[2- [[1(R)-[5-METHYL-4-(1-METHYLETHYL)- 2-FURANYL]PROPYL]AMINO]-3,4- DIOXO-1-CYCLOBUTEN-1-YL]AMINO]- BENZAMIDE], the inhibition at 0.003 µM turned out to be 112%. Consider `CC[C@@H](Nc1c(Nc2cccc(C(=O)N3CC[C@H](O)C3)c2O)c(=O)c1=O)c1cc(Br)c(C)o1` [Compound 5, 1-[3-[[2-[[1(R)-(4-BROMO-5-METHYL-2- FURANYL)PROPYL]AMINO]-3,4-DIOXO- 1-CYCLOBUTEN-1-YL]AMINO]-2- HYDROXYBENZOYL]-3(S)- PYRROLIDINOL], for which the inhibition at 0.003 µM was determined as 119%. Consider `CC[C@@H](Nc1c(Nc2cccc(C(=O)N3CCC3)c2O)c(=O)c1=O)c1cc(C2CC2)c(C)o1` [Compound 6, 1-[3-[[2-[[1(R)-(4-CYCLOPROPYL-5- METHYL-2-FURANYL)PROPYL]AMINO]- 3,4-DIOXO-1-CYCLOBUTEN-1- YL]AMINO]-2-HYDROXYBENZOYL]- AZETIDINE], for which the inhibition at 0.003 µM stood at 115%. As for `CC[C@@H](Nc1c(Nc2cccc(C(=O)N(C)C)c2O)c(=O)c1=O)c1cc(C(C)C)c(Br)o1` [Compound 10, 3-[[2-[[1(R)-[5-BROMO-4-(1-METHYL- ETHYL)-2-FURANYL]PROPYL]AMINO]- 3,4,-DIOXO-1-CYCLOBUTEN-1-YL]- AMINO]-2-HYDROXY-N,N-DIMETHYL- BENZAMIDE], the figure is 109%.

`CC[C@@H](Nc1c(Nc2cccc(C(=O)N(C)C)c2O)c(=O)c1=O)c1cc(C(C)C)c(C2CC2)o1` [Compound 13, 3-[[2-[[1(R)-[5-CYCLOPROPYL-4-(1- METHYLETHYL)-2-FURANYL]PROPYL]- AMINO]-3,4-DIOXO-1-CYCLOBUTEN-1- YL]AMINO]-2-HYDROXY-N,N- DIMETHYLBENZAMIDE]: the inhibition at 0.003 µM worked out at 105%. In the case of `CC[C@@H](Nc1c(Nc2cccc(C(=O)N3CCOCC3)c2O)c(=O)c1=O)c1cc(Br)c(C)o1` [Compound 7, 4-[3-[[2-[[1(R)-(4-BROMO-5-METHYL-2- FURANYL)PROPYL]AMINO]-3,4-DIOXO- 1-CYCLOBUTEN-1-YL]AMINO]-2- HYDROXYBENZOYL]MORPHOLINE] it was 114%. As for `CC[C@@H](Nc1c(Nc2cccc(C(=O)N3CCOCC3)c2O)c(=O)c1=O)c1cc(C(C)C)c(C)o1` [Compound 1, 4-[2-HYDROXY-3-[[2-[[1(R)-[5-METHYL- 4-(1-METHYLETHYL)-2-FURANYL]- PROPYL]AMINO]-3,4-DIOXO-1- CYCLOBUTEN-1-YL]AMINO]BENZOYL]- MORPHOLINE], the inhibition at 0.003 µM came out at 137%.

On to `CCc1oc([C@@H](CC)Nc2c(Nc3cccc(C(=O)N4CCC4)c3O)c(=O)c2=O)cc1Br` [Compound 15, 1-[3-[[2-[[1(R)-(4-BROMO-5-ETHYL-2- FURANYL)PROPYL]AMINO]-3,4-DIOXO- 1-CYCLOBUTEN-1-YL]AMINO]-2- HYDROXYBENZOYL]AZETIDINE], for which the inhibition at 0.003 µM amounted to 103%. As to `CC[C@@H](Nc1c(Nc2cccc(C(=O)N3CCCC3)c2O)c(=O)c1=O)c1cc(Br)c(C)o1` [Compound 9, 1-[3-[[2-[[1(R)-(4-BROMO-5-METHYL-2- FURANYL)PROPYL]AMINO]-3,4-DIOXO- 1-CYCLOBUTEN-1-YL]AMINO]-2- HYDROXYBENZOYL]PYRROLIDINE], the inhibition at 0.003 µM was determined as 110%. Consider `CC[C@@H](Nc1c(Nc2cccc(C(=O)N(C)C)c2O)c(=O)c1=O)c1cc(Cl)c(C)o1` [Compound 4, 3-[[2-[[1(R)-(4-CHLORO-5-METHYL-2- FURANYL)PROPYL]AMINO]-3,4-DIOXO- 1-CYCLOBUTEN-1-YL]AMINO]-2- HYDROXY-N,N-DIMETHYLBENZAMIDE], for which the inhibition at 0.003 µM was found to be 120%. With `CC[C@@H](Nc1c(Nc2cccc(C(=O)N3CC[C@@H](O)C3)c2O)c(=O)c1=O)c1cc(Br)c(C)o1` [Compound 16, 1-[3-[[2-[[1(R)-(4-BROMO-5-METHYL-2- FURANYL)PROPYL]AMINO]-3,4-DIOXO- 1-CYCLOBUTEN-1-YL]AMINO]-2- HYDROXYBENZOYL]-3(R)- PYRROLIDINOL], the inhibition at 0.003 µM was 101%. Regarding `CCc1oc([C@@H](CC)Nc2c(Nc3cccc(C(=O)N(C)C)c3O)c(=O)c2=O)cc1Br` [Compound 18, 3-[[2-[[1(R)-(4-BROMO-5-ETHYL-2- FURANYL)PROPYL]AMINO]-3,4-DIOXO- 1-CYCLOBUTEN-1-YL]AMINO]-2- HYDROXY-N,N-DIMETHYLBENZAMIDE], the inhibition at 0.003 µM worked out at 99%. Consider `CC[C@@H](Nc1c(Nc2cccc(C(=O)N3CCCC3)c2O)c(=O)c1=O)c1cc(C(C)C)c(C)o1` [Compound 2, 1-[2-HYDROXY-3-[[2-[[1(R)-[5-METHYL- 4-(1-METHYLETHYL)-2-FURANLY]- PROPYL]AMINO]-3,4-DIOXO-1- CYCLOBUTEN-1-YL]AMINO]-BENZOYL]PYRROLIDINE], for which the inhibition at 0.003 µM was 132%. Turning to `CC[C@@H](Nc1c(Nc2cccc(C(=O)N3CCC3)c2O)c(=O)c1=O)c1cc(C(C)C)c(C)o1` [Compound 17, 1-[2-HYDROXY-3-[[2-[[1(R)-[5-METHYL- 4-(1-METHYLETHYL)-2-FURANYL]- PROPYL]AMINO]-3,4-DIOXO-1- CYCLOBUTEN-1-YL]AMINO]- BENZOYL]AZETIDINE], the inhibition at 0.003 µM amounted to 100%.

The values above are taken from patent US20080045489A1, “3,4-DI-SUBSTITUTED CYCLOBUTENE-1,2-DIONES AS CXC-CHEMOKINE RECEPTOR LIGANDS” (priority 2006, published 2008).
